The values that follow come from patent US8455546B2, “Medicament having promoting action on hepatocyte proliferation” (Josai University Educational Corporation, priority 2007, dated 2013).

Like-named read-outs stand apart in the source and are kept apart here.

For data set [1], the system named is mouse liver carcinogenic model. The conditions noted are these: reported; cited from earlier work.
Data set [2] concerns primarily cultured rat hepatocytes. In words: Influence on cell density-dependent proliferation of primarily cultured rat hepatocytes. The conditions noted are these: cell densities 1-10×10^4 cells/cm^2; NIK-333 10^−9, trans 10^−7, GGP 10^−6 mol/L; four hours; FIG. 2. The class given is cell-based. From the text: Hepatocytes isolated by the same method as that of Example 1 were inoculated at cell densities of 1, 2, 3.3, 5, 7, and 10×10^4 cells/cm^2. NIK-333 (10^−9 mol/L), trans (10^−7 mol/L), cis (10^−6 mol/L), GG (10^−7 mol/L), and GGP (10^−6 mol/L) were each added to the hepatocytes pre-cultured in the same manner as that of Example 1.

For data set [3] the test system is unchanged.
Protocol: (§1) Wistar male rats (weight: 200 to 205 g) were used, and hepatocytes were isolated by the in situ collagenase perfusion technique according to the method of Seglen et al. (Methods. Cell Biol., 13, pp. 29-83, 1975). The isolated hepatocytes were suspended in the Williams' medium E (containing 0.1 μg/mL aprotinin, 100 U/mL of penicillin G, 0.1 mg/mL of streptomycin, and 0.1 nmol/L of dexamethasone) containing 5% bovine neonate serum 3 times for washing, and then inoculated on a collagen coated culture dish (35 mm Φ) at a cell density of 3.3×10^4 cells/cm^2. The cells were adhered to the culture dish by culturing them at 37° C. for 3 hours in the presence of 5% CO2 to prepare a primarily cultured hepatocyte cell line. Survival rate of the isolated hepatocytes was obtained by the trypan blue exclusion method, and those showing a survival rate not lower than 93% were used for the following experiments.
(§2) Four hours after the addition of the agents, number of nuclei was measured as follows. The hepatocytes were washed with PBS, and then added with 0.25 mL of a 0.1 mol/L citric acid solution containing 0.1% Triton X-100. The cells were incubated at 37° C. for 30 minutes to solubilize the cell membranes and thereby obtain naked nuclei. The same volume of a PBS solution containing 0.3% trypan blue was further added, and number of the stained nuclei was measured with a hemacytometer.
Data set [4] deals with primarily cultured mouse hepatocytes. The conditions noted are these: cited from earlier work.
Data set [5] deals with primarily cultured rat hepatocytes. In words: Effect of promoting proliferation of primarily cultured rat hepatocytes (number of nuclei). The conditions noted are these: FIG. 1; for effect of promoting proliferation of primarily cultured rat hepatocytes (number of nuclei): 10^−11 to 10^−7 (and 10^−8 as printed) mol/L, four hours after addition, 3.3×10^4 cells/cm^2, vs solvent control.
Protocol: as §1, §2

Data set [6] concerns 70% partially hepatectomized rat (PH rat). In words: Liver regeneration in 70% partially hepatectomized rat (PH rat). The class given is in vivo. The conditions noted are these: 0.4 mg/kg/day p.o. The protocol:
Hepatocyte proliferation promoting effect of NIK-333 was examined by using a 70% partially hepatectomized rat (partial hepatectomy: PH rat) as an in vivo experiment system.
Wistar male rats (weight: 130 to 170 g) were subjected to 70% partial hepatectomy according to the method of Higgins G. M. et al. (Arch. Pathol., 12, pp. 186-202, 1931) to prepare PH rats. NIK-333 (solvent was soybean oil, 0.4 mg/kg/day) was orally administered to these PH rats once per day, the administration was repeated and continued for 1 to 14 days, and reaction was observed over time. The model animals fed for 1 to 14 days after the hepatectomy were subjected to abdominal section under diethyl ether anesthesia, and the remaining livers were extracted. The remaining livers were separated into normal hepatic tissues and necrotizing hepatic tissues (liver tissues which were not excisable by the partial hepatectomy and remained), and weight of each was measured (wet weight). The examination was performed for three animals for each group, and the results are indicated as average±standard error. Student t-test was performed between a solvent administered group (soybean oil, 4 mL/kg, p.o.) as a control group and the NIK-333 administered group. The significance level of the test was set at 5% and 1% on both sides.

Data set [7] deals with cell lines derived from human hepatoma (HuH-7, JHH-7, HLF, Hep G2). Nature of the data set: Influence on proliferation of cell lines derived from human hepatoma (WST-1 live cell count). The class given is cell-based. Particulars: 10^−11 to 10^−7 mol/L, cultured overnight, FIG. 3. The protocol: The cells were inoculated on a 96-well plate at a cell density of 1×10^4 cells/mL, and cultured overnight at 37° C. in the presence of 5% CO2. […] The cells were cultured overnight at 37° C. in the presence of 5% CO2, and live cell count was measured. The live cell count was measured by using Cell Counting Kit (Wako Pure Chemical Industries). […] Absorbance was measured for each well at a measurement wavelength of 450 nm and a reference wavelength of 655 nm using a microplate reader.
(Tetrazolium dyes change colour on reduction, which living cells bring about.)

The test system of data set [8] is rat partially hepatectomized model. Particulars: rat partially hepatectomized model (Non-patent document 9); cited from earlier work.
Another data set deals with hepatoma. Particulars: long-term administration over one year (Non-patent document 6); cited from earlier work.

As to `CC1=C(/C=C/C(C)=C/C=C/C(C)=C/C(=O)O)C(C)(C)CCC1` [trans, all-trans-retinoic acid], in data set [1], the “oncogenesis in mouse liver carcinogenic model” value is given as “promote oncogenesis”. Also, in data set [2], the “cell proliferation promoting action with increasing cell density” value was “gave the cell proliferation promoting action even when the cell density was increased”. In addition, in data set [3], the “effect of promoting proliferation of primarily cultured rat hepatocytes (number of nuclei)” value (shortened to “effect … (number of nuclei)”) is recorded as “significant effect of promoting proliferation”. Further, the “proliferation of mouse hepatocytes” value in data set [4] (reported, no concentration given) is on record as “induce the proliferation of mouse hepatocytes”.

As to `CC(C)=CCC/C(C)=C/CC/C(C)=C/CC/C(C)=C/COP(=O)(O)OP(=O)(O)O.N.N.N` [GGP, geranylgeranyl pyrophosphate ammonium salt, reference compound], the “cell proliferation promoting action with increasing cell density” value in data set [2] is “decreased with the increase of the cell density”. Further, the “effect … (number of nuclei)” value in data set [5] was “significant effect of promoting proliferation”.

For `CC(C)=CCC/C(C)=C/CC/C(C)=C/C=C/C(C)=C/C(=O)O` [NIK-333, (2E,4E,6E,10E)-3,7,11,15-tetramethyl-2,4,6,10,14-hexadecapentaenoic acid], the “recovery of liver weight compared with the control group” value in data set [6] (1 to 14 days) is recorded as “earlier recovery of liver weight”. In addition, in [6] (14th day after PH), the “hyperproliferation exceeding the value of the Sham group” value was “not observed”. In data set [6] (3 days after PH), the “increase rate of liver weight” value worked out at 85%. For the same compound, the liver weight in [6] (3 days after PH, g liver weight/100 g body weight) is listed as 3.0 g LW/BW. Further, in [2], the “cell proliferation promoting action with increasing cell density” value was “decreased with the increase of the cell density”. The “proliferation promotion action for human hepatoma cell strains (live cell count)” value in data set [7] is given as “no proliferation promotion action”. In addition, in [5], the “effect … (number of nuclei)” value was “significant effect of promoting proliferation”. Moreover, in data set [5] (comparison of NIK-333, trans, cis, GG, GGP), the “relative strength of the proliferation promoting effect among the tested agents” value is “strongest effect”. Also, in data set [8], the “DNA synthesis of regenerated liver” value was “delays DNA synthesis”. Moreover, the “recurrence of hepatoma after radical cure” value in the data set on hepatoma is on record as “significantly suppressed”. Also, the “effect on proliferation of primarily cultured mouse hepatocytes” value in [4] (at a concentration inducing apoptosis of hepatoma cells (Non-patent documents 7 and 8)) was “does not affect proliferation”.
